US6063778A, “Cephalosporin derivatives and processes for the preparation thereof” (Il-Dong Pharm. Co., Ltd., priority 1995, dated 2000)
Values after ≈ are worked out from the molar mass of the structure shown. Where two headings read alike, the source gives them in different places.

Experiments:
Escherichia coli TEM = assay: MIC by agar dilution, in vitro activity test; type: cell-based; conditions: 20 h, read-out: Minimal Inhibitory Concentration (MIC)
Experimental: (§1) These MIC values were determined by agar dilution method: that is, two-fold dilutions of each of the test compounds were made and dispersed in a Mueller-Hinton Broth medium. Standard test strain which had the 10^6 CFU per ml was inoculated on the medium, and was incubated at 37° C. for 18 to 20 hours.

Salmonella typhimurium = assay: MIC by agar dilution, in vitro activity test; type: cell-based; conditions: Salmonella enterica, 37° C., 18 to 20 hours, read-out: Minimal Inhibitory Concentration (MIC)
Experimental: as §1

[1] = test system: Pseudomonas aeruginosa 9027; assay: MIC by agar dilution, in vitro activity test; type: cell-based; conditions: 37° C., 18 to 20 hours, read-out: Minimal Inhibitory Concentration (MIC)
Experimental: as §1

[2] = test system: Staphylococcus aureus 285; assay: MIC by agar dilution, in vitro activity test; type: cell-based; conditions: 37° C., 18 to 20 hours, read-out: Minimal Inhibitory Concentration (MIC)
Experimental: as §1

[3] = test system: Staphylococcus aureus 503; assay: MIC by agar dilution, in vitro activity test; type: cell-based; conditions: 37° C., 18 to 20 hours, read-out: Minimal Inhibitory Concentration (MIC)
Experimental: as §1

[4] = test system: Enterobacter cloace 1321E; assay: MIC by agar dilution, in vitro activity test; type: cell-based; conditions: 37° C., 18 to 20 hours, read-out: Minimal Inhibitory Concentration (MIC)
Experimental: as §1

Enterobacter cloace P99 = assay: MIC by agar dilution, in vitro activity test; type: cell-based; conditions: P99, 20 h, read-out: Minimal Inhibitory Concentration (MIC)
Experimental: as §1

[5] = test system: Staphylococcus aureus SG511; assay: MIC by agar dilution, in vitro activity test; type: cell-based; conditions: 37° C., 18 to 20 hours, read-out: Minimal Inhibitory Concentration (MIC)
Experimental: as §1

[6] = test system: Streptococcus pyogenes 77A; assay: MIC by agar dilution, in vitro activity test; type: cell-based; conditions: 37° C., 18 to 20 hours, read-out: Minimal Inhibitory Concentration (MIC)
Experimental: as §1

[7] = test system: Pseudomonas aeruginosa 1592E; assay: MIC by agar dilution, in vitro activity test; type: cell-based; conditions: 37° C., 18 to 20 hours, read-out: Minimal Inhibitory Concentration (MIC)
Experimental: as §1

Escherichia coli DC 0 = assay: MIC by agar dilution, in vitro activity test; type: cell-based; conditions: DC0, 37° C., 18 to 20 hours, read-out: Minimal Inhibitory Concentration (MIC)
Experimental: as §1

[8] = test system: Streptococcus faecium MD 8b; assay: MIC by agar dilution, in vitro activity test; type: cell-based; conditions: Enterococcus faecium, MD8B, read-out: Minimal Inhibitory Concentration (MIC)
Experimental: as §1

Escherichia coli 1507E = assay: MIC by agar dilution, in vitro activity test; type: cell-based; conditions: read-out: Minimal Inhibitory Concentration (MIC)
Experimental: as §1

Escherichia coli 078 = assay: MIC by agar dilution, in vitro activity test; type: cell-based; conditions: 37° C., 18 to 20 hours, read-out: Minimal Inhibitory Concentration (MIC)
Experimental: as §1

[9] = test system: Streptococcus pyogenes 71A; assay: MIC by agar dilution, in vitro activity test; type: cell-based; conditions: 37° C., 18 to 20 hours, read-out: Minimal Inhibitory Concentration (MIC)
Experimental: as §1

[10] = test system: Klebsiella aerogenes 1522E; assay: MIC by agar dilution, in vitro activity test; type: cell-based; conditions: read-out: Minimal Inhibitory Concentration (MIC)
Experimental: as §1

[11] = test system: Pseudomonas aeruginosa 1771M; assay: MIC by agar dilution, in vitro activity test; type: cell-based; conditions: 20 h, read-out: Minimal Inhibitory Concentration (MIC)
Experimental: as §1

[12] = test system: Klebsiella aerogenes 1082E; assay: MIC by agar dilution, in vitro activity test; type: cell-based; conditions: 37° C., 18 to 20 hours, read-out: Minimal Inhibitory Concentration (MIC)
Experimental: as §1

Escherichia coli DC 2 = assay: MIC by agar dilution, in vitro activity test; type: cell-based; conditions: DC2, 37° C., 18 to 20 hours, read-out: Minimal Inhibitory Concentration (MIC)
Experimental: as §1

[13] = test system: Pseudomonas aeruginosa 9071; assay: MIC by agar dilution, in vitro activity test; type: cell-based; conditions: 37° C., 18 to 20 hours, read-out: Minimal Inhibitory Concentration (MIC)
Experimental: as §1

[14] = test system: Pseudomonas aeruginosa 1771; assay: MIC by agar dilution, in vitro activity test; type: cell-based; conditions: 37° C., 18 to 20 hours, read-out: Minimal Inhibitory Concentration (MIC)
Experimental: These MIC values were determined by agar dilution method: that is, two-fold dilutions of each of the test compounds were made and dispersed in a Mueller-Hinton Broth medium.

Acute toxicity study = type: in vivo; conditions: mouse, in vivo
Experimental: In order to illustrate usefulness of the compounds of the present invention, acute toxicity test of the compounds synthesized in the above Examples were carried out. Each dose of the compounds dissolved in saline and buffer solution (PH=7.0) was administered by intravenous or subcutaneous injection. Mortalities of the animals was recorded seven days latter.
.asterisk-pseud. Mouse: Male ICR strain, 4 weeks

[15] = test system: Staphylococcus aureus, Escherichia coli and Pseudomonas aeruginosa; assay: MIC by agar dilution, comparison in words; type: cell-based; conditions: against Staphylococcus aureus, vs Cefotaxime
Experimental: as §1

[16] = Escherichia coli 1507E, agar dilution, 37° C., 18 to 20 hours
[17] = Klebsiella aerogenes 1522E, agar dilution, 37° C., 18 to 20 hours
[18] = iv, i.v, male ICR mouse, 4 weeks, mortality at seven days, read-out: LD50 i.v
[19] = iv, intravenous routes, read-out: acute toxicity in intravenous routes
[20] = sc, s.c, male ICR mouse, 4 weeks, mortality at seven days, read-out: LD50 s.c

SMILES	MIC (Escherichia coli TEM) [µg/mL]	MIC (Salmonella typhimurium) [µg/mL]	MIC [1] [µg/mL]	MIC [2] [µg/mL]	MIC [3] [µg/mL]	MIC [4] [µg/mL]	MIC (Enterobacter cloace P99) [µg/mL]	MIC [5] [µg/mL]	MIC [6] [µg/mL]	MIC [7] [µg/mL]	MIC (Escherichia coli DC 0) [µg/mL]	MIC ([8]; 20 h) [µg/mL]	MIC (Escherichia coli 1507E; [16]) [µg/mL]	MIC (Escherichia coli 078) [µg/mL]	MIC [9] [µg/mL]	MIC [10, 17] [µg/mL]	MIC [11] [µg/mL]	MIC [12] [µg/mL]	MIC (Escherichia coli DC 2) [µg/mL]	MIC [14] [µg/mL]	further results
CO/N=C(\C(=O)N[C@@H]1C(=O)N2C(C(=O)[O-])=C(C[n+]3cccc4c3CCC4)CS[C@H]12)c1csc(N)n1 [CPR, Cefpirome, reference compound]	0.05 (≈ 0.0972 µM)	0.1 (≈ 0.194 µM)	6.3 (≈ 12.2 µM)	0.4 (≈ 0.777 µM)	0.8 (≈ 1.55 µM)	0.025 (≈ 0.0486 µM)	3.1 (≈ 6.02 µM)	0.8 (≈ 1.55 µM)	0.012 (≈ 0.0233 µM)	3.1 (≈ 6.02 µM)	0.012 (≈ 0.0233 µM)	100 (≈ 194 µM)	0.025 (≈ 0.0486 µM)	0.025 (≈ 0.0486 µM)	0.012 (≈ 0.0233 µM)	0.1 (≈ 0.194 µM)	0.8 (≈ 1.55 µM)	6.3 (≈ 12.2 µM)	0.1 (≈ 0.194 µM)	3.1 (≈ 6.02 µM)	MIC [13]: 6.3 µg/mL (≈ 12.2 µM)
CO/N=C(\C(=O)N[C@@H]1C(=O)N2C(C(=O)O)=C(COC(C)=O)CS[C@H]12)c1csc(N)n1 [CTX, Cefotaxime, reference compound]	0.05 (≈ 0.11 µM)	0.1 (≈ 0.22 µM)	25 (≈ 54.9 µM)	1.6 (≈ 3.51 µM)	3.1 (≈ 6.81 µM)	0.05 (≈ 0.11 µM)	> 100	1.6 (≈ 3.51 µM)	0.012 (≈ 0.0263 µM)	25 (≈ 54.9 µM)	0.012 (≈ 0.0263 µM)	> 100	0.025 (≈ 0.0549 µM)	0.025 (≈ 0.0549 µM)	0.012 (≈ 0.0263 µM)	0.1 (≈ 0.22 µM)	0.4 (≈ 0.878 µM)	6.3 (≈ 13.8 µM)	0.05 (≈ 0.11 µM)		MIC [13]: 25 µg/mL (≈ 54.9 µM)
CO/N=C(\C(=O)N[C@@H]1C(=O)N2C(C(=O)[O-])=C(/C=C/C[N+](C)(C)Cc3scnc3C)CS[C@H]12)c1csc(N)n1 [Example 1, 7β-[(Z)-2-(2-aminothiazol-4-yl)-2-methoxyiminoacetamido]-3-[(E)-3-[(4-methylthiazol-5-yl)-methyldimethylammonio]-1-propen-1-yl]3-cephem-4-carboxylate]	0.05 (≈ 0.0865 µM)	0.1 (≈ 0.173 µM)	12.5 (≈ 21.6 µM)	0.4 (≈ 0.692 µM)	0.8 (≈ 1.38 µM)	0.012 (≈ 0.0208 µM)	0.4 (≈ 0.692 µM)	0.4 (≈ 0.692 µM)	0.006 (≈ 0.0104 µM)	3.1 (≈ 5.37 µM)	0.025 (≈ 0.0433 µM)		0.025 (≈ 0.0433 µM)	< 0.006		0.05 (≈ 0.0865 µM)	0.4 (≈ 0.692 µM)	6.3 (≈ 10.9 µM)	0.05 (≈ 0.0865 µM)	6.3 (≈ 10.9 µM)	LD50 at 168 h (Acute toxicity study; [18]): > 3000 mg/kg; LD50 at 168 h (Acute toxicity study; [19]): > 2000 mg/kg; LD50 at 168 h (Acute toxicity study; [20]): > 4000 mg/kg; LD50 at 168 h (Acute toxicity study; sc, subcutaneous routes, read-out: acute toxicity in subcutaneous routes): > 3000 mg/kg; MICs compared with Cefotaxime [15]: superior to that of Cefotaxime; MIC ([8]; Streptococcus faecium MD 8b, agar dilution, 37° C., 18 to 20 hours): 50 µg/mL (≈ 86.5 µM)
CO/N=C(\C(=O)N[C@@H]1C(=O)N2C(C(=O)[O-])=C(/C=C/C[N+](C)(C)Cc3nc[nH]c3C)CS[C@H]12)c1csc(N)n1 [Example 2, 7β-[(Z)-2-(2-aminothiazol-4-yl)-2-methoxyiminoacetamido]-3-[(E)-3-[(5-methylimidazol-4-yl)-methyldimethylammonio]-1-propen-1-yl]3-cephem-4-carboxylate]																					LD50 at 168 h (Acute toxicity study; [18]): > 2000 mg/kg; LD50 at 168 h (Acute toxicity study; [19]): > 2000 mg/kg; LD50 at 168 h (Acute toxicity study; [20]): > 3000 mg/kg
CC[N+](C)(CC=CC(N)=O)C/C=C/C1=C(C(=O)[O-])N2C(=O)[C@@H](NC(=O)/C(=N\OC)c3csc(N)n3)[C@H]2SC1 (stereo partly drawn) [Example 6, 7β-[(Z)-2-(2-aminothiazol-4-yl)-2-methoxyiminoacetamido]-3-[(E)-3-[(1-carbamoyl-1-propen-3-yl)-3-ethylmethylammonio]-1-propen-1-yl]3-cephem-4-carboxylate]	0.05 (≈ 0.0887 µM)	0.1 (≈ 0.177 µM)	6.3 (≈ 11.2 µM)	0.4 (≈ 0.71 µM)	0.8 (≈ 1.42 µM)	0.025 (≈ 0.0444 µM)	1.6 (≈ 2.84 µM)	0.8 (≈ 1.42 µM)	0.012 (≈ 0.0213 µM)	3.1 (≈ 5.5 µM)	< 0.006	> 100	0.05 (≈ 0.0887 µM)	0.12 (≈ 0.213 µM)		0.1 (≈ 0.177 µM)	0.4 (≈ 0.71 µM)	3.1 (≈ 5.5 µM)	0.05 (≈ 0.0887 µM)	3.1 (≈ 5.5 µM)	LD50 at 168 h (Acute toxicity study; [18]): > 3000 mg/kg; LD50 at 168 h (Acute toxicity study; [19]): > 2000 mg/kg; LD50 at 168 h (Acute toxicity study; [20]): > 3000 mg/kg; MICs compared with Cefotaxime [15]: superior to that of Cefotaxime
Cc1ncsc1C[N+](C)(C)C/C=C/C1=C(C(=O)[O-])N2C(=O)[C@@H](NC(=O)/C(=N\OCCF)c3nsc(N)n3)[C@H]2SC1 [Example 14, 7β-[(Z)-2-(5-amino-1,2,4-thiadiazol-3-yl)-2-fluoroethoxyiminoacetamido]-3-[(E)-3-[(4-methylthiazol-5-yl)-methyldimethylammonio]-1-propen-1-yl]3-cephem-4-carboxylate]	0.025 (≈ 0.0409 µM)	0.1 (≈ 0.164 µM)		0.8 (≈ 1.31 µM)	0.8 (≈ 1.31 µM)	0.012 (≈ 0.0196 µM)	0.4 (≈ 0.655 µM)	0.4 (≈ 0.655 µM)		3.1 (≈ 5.08 µM)	< 0.006	> 100		0.012 (≈ 0.0196 µM)	0.05 (≈ 0.0819 µM)		0.4 (≈ 0.655 µM)	3.1 (≈ 5.08 µM)	0.05 (≈ 0.0819 µM)	3.1 (≈ 5.08 µM)	MICs compared with Cefotaxime [15]: superior to that of Cefotaxime; MIC (Escherichia coli 1507E; Escherichia coli, 1507E, 20 h): 0.025 µg/mL (≈ 0.0409 µM); MIC ([10]; Klebsiella aerogenes, 1522E, 20 h): 0.025 µg/mL (≈ 0.0409 µM); MIC [13]: 12.5 µg/mL (≈ 20.5 µM)
